Source: patent publication US9301987B2, “Anti-adipogenic compositions containing Piper betle and Dolichos biflorus” (LAILA NUTRACEUTICALS, priority 2007, dated 2016)

Experiments:
diet induced obese rats = assay: Anti-obese activity in diet induced obese rats (treatment after 8 weeks high fat diet); type: in vivo, Sprague-Dawley rats; details: 7 mg/kg per day oral, vs untreated control group
Description: Selected healthy Sprague-Dawley rats were randomly assigned for control or various treatment groups (n=6). All the animals allocated for the study were made obese through dietary intervention by feeding high fat diet ad libitum for 8 weeks. After 8 weeks, the treatment group of animals was given oral administration of 250 mg/kg of Piper betle 60% methanol extract per day in 10 mL of 0.5% CMC, using gastric tube for 8 week study duration. The control group of animals was given 10 ml/kg of 0.5% CMC. The animals of positive control group were given 7 mg/kg sibutramine per day in 10 mL of 0.5% CMC. Food and water consumptions were recorded daily, body weights were recorded weekly and fasting blood samples were collected before initiation, after 4th week and 8th week (termination) of the study.
Selected healthy Sprague-Dawley rats were randomly assigned to control or various treatment groups (n=6). All the animals allocated for the study were made obese through dietary intervention by feeding high fat diet ad libitum for 8 weeks. […] Food and water consumption were recorded daily, body weights were recorded weekly and fasting blood samples were collected before initiation, after 4th week and 8th week (termination) of the study.

[1] = system: diet induced obesity in rats; assay: Protective effect against diet induced obesity in rats (treatment simultaneous with high fat diet); type: in vivo, Sprague-Dawley rats; details: 7 mg/kg per day oral, 8 weeks, vs untreated control group
Description: Selected healthy Sprague-Dawley rats were randomly assigned to control or various treatment groups (n=6). All the animals allocated for protective phase of the study were on dietary intervention by feeding high fat diet ad libitum and the animals allocated to treatment groups were simultaneously given oral administration of 250 mg/kg Piper betle hydroalcohol extract per day in 10 mL of 0.5% CMC, using gastric tube for the entire 8 week study duration. The test animals of the control group were simultaneously given 10 ml/kg 0.5% CMC. The animals of positive control group were given 7 mg/kg sibutramine in 10 mL of 0.5% CMC. Food and water consumptions were recorded daily, body weights were recorded weekly and fasting blood samples were collected before initiation, after 4th week and 8th week (termination) of the study. […] Upon administration of Piper betle alcohol extract for a period of 60 days, the level of triglyceride in the obese rats was reduced by 33%. The levels of serum cholesterol and LDL were reduced by 22% and 23% respectively, whereas the level of HDL was increased by 11%.
Selected healthy Sprague-Dawley rats were randomly assigned to control or various treatment groups (n=6). […] Food and water consumption were recorded daily, body weights were recorded weekly and fasting blood samples were collected before initiation, after 4th week and 8th week (termination) of the study. […]

Structure (SMILES): CC(C)CC(N(C)C)C1(c2ccc(Cl)cc2)CCC1 (centres unmarked) [sibutramine]
- reduction in mean body weight gain (diet induced obese rats): ~87%
- reduction (protection) in weight gain [1]: 44.4%
